Data published in patent US12436145B2, “Cryptic antibiotics and methods for detecting bioactive cryptic metabolites” (THE TRUSTEES OF PRINCETON UNIVERSITY, priority 2019, dated 2025).
In brackets after ≈: the same amount, converted by molar mass. Like-named read-outs stand apart in the source and are kept apart here. Peptide text beside a SMILES is read from it.

Key:
[1] = test system: S. lavendulae; assay: Elicitor screening, supernatants in disc diffusion assays against B. subtilis; assay type: cell-based, Streptomyces lavendulae; details: S. lavendulae grown with ~33 μM elicitor, 5 days; supernatant on B. subtilis disc diffusion
Method: (§1) For the high-throughput-elicitor screening portion of this example, the procedure is described for S. hiroshimensis. An identical procedure was used for S. lavendulae and A. keratiniphila. […] The culture was incubated at 30° C./250 rpm for two days. Then, the mycelia cell mass was pelleted by centrifugation, the supernatant discarded, and a stock solution of 100 mg/mL cell mass was generated in R4 medium. The stock solution was used to prepare the appropriate volume (see below) of R4 medium containing 0.5 mg/mL mycelia cell mass in a 250 mL Erlenmeyer flask. The suspension was homogenized by stirring at room temperature. Subsequently, a MultiFlow Dispenser (from Biotek, Inc.) was used to dispense 150 μL of the suspension into each well of six sterile round bottom 96 well plates (from Corning, Inc.). Candidate elicitors were added from a commercially-available 502-member Natural Products Library (from Enzo Life Sciences, Inc.) using a CYBI-WELL™ automated liquid transfer robot (from CyBio AG). A volume of 0.5 μL was transferred from the compound library into each well to give a final concentration of ^˜33 μM. […]
(§2) The resulting agar plates were assessed visually, and subsequently examined visually for halos. To generate FIG. 2, the halo diameter, if any, was measured and categorized as none (n), weak (w), medium (m), or strong (s) inhibition. […]

[2] = test system: A. keratiniphila; assay: Elicitor screening, supernatants in liquid bioassay against E. coli; assay type: cell-based, Amycolatopsis kerathiniphila; details: A. keratiniphila grown with ~33 μM elicitor; supernatant on E. coli, OD600 nm
Method: (§3) For the high-throughput-elicitor screening portion of this example, the procedure is described for S. hiroshimensis. An identical procedure was used for S. lavendulae and A. keratiniphila. […] The culture was incubated at 30° C./250 rpm for two days. Then, the mycelia cell mass was pelleted by centrifugation, the supernatant discarded, and a stock solution of 100 mg/mL cell mass was generated in R4 medium. The stock solution was used to prepare the appropriate volume (see below) of R4 medium containing 0.5 mg/mL mycelia cell mass in a 250 mL Erlenmeyer flask. The suspension was homogenized by stirring at room temperature. Subsequently, a MultiFlow Dispenser (from Biotek, Inc.) was used to dispense 150 μL of the suspension into each well of six sterile round bottom 96 well plates (from Corning, Inc.). Candidate elicitors were added from a commercially-available 502-member Natural Products Library (from Enzo Life Sciences, Inc.) using a CYBI-WELL™ automated liquid transfer robot (from CyBio AG). A volume of 0.5 μL was transferred from the compound library into each well to give a final concentration of ^˜33 μM. Then each plate was covered with a BREATHE-EASY® sealing membrane (from MilliporeSigma) and cultured at 30° C./200 rpm for 5 days. Humidity was maintained in the shaker/incubator by incubating several flasks containing sterile water.
Assays against E. coli were also carried out. In this case, broader elicitation screens were conducted using a ˜500-member natural product library as the source of potential inducers. To increase the throughput of the assays, liquid bioassays were used. […]
From the elicitor plates, after culturing for 5 days, the plates were spun down in a 96-well plate centrifuge and the supernatants (10 μL) transferred to fresh 96-well assay plates, each well containing 100 μL LB-E. coli culture, with the E. coli cells inoculated to an initial OD600 nm OD600 nm of 0.002. The assay plates were cultured at 37° C./200 rpm overnight (10-12 h) and OD600 nm was then determined using a plate reader. […]

[3] = test system: S. cebuensis; assay: Elicitor screening, supernatants on E. coli cultures (OD600 nm); assay type: cell-based, Saccharopolyspora cebuensis; details: S. cebuensis grown with elicitor, supernatant on E. coli
Method: Wild-type S. cebuensis cultures were transferred to 96 well-plates and each well was robotically supplemented with a compound from a commercial small molecule library as a source of elicitors. […] To grow the cells, the plates were incubated for a defined period. […] The OD600 nm from each well was normalized and the % E. coli growth thus obtained was plotted as a function of each elicitor, allowing one to identify at least one elicitor corresponding to a second activity greater than the first activity.

[4] = test system: E. coli; assay: In-house bioactivity assays of induced peaks and purified taylorflavins; assay type: cell-based
[5] = test system: P. aeruginosa ATCC 27853; assay: Minimal inhibitory concentration (CLSI methods); assay type: cell-based
Method: (§4) Antibacterial assays with taylorflavin B (8) were carried out by Micromyx, LLC in accordance with methods from the Clinical and Laboratory Standards Institute. Minimal inhibitory concentrations were determined with the following strains: E. coli ATCC 25922, A. baumannii ATCC 19606, V. cholerae BAA-2163, N. gonorrhoeae ATCC 49226, P. aeruginosa ATCC 27853, K. pneumoniae MMX 214. S. aureus ATCC 29213, S. aureus MMX 2011, S. pneumoniae ATCC 49619, S. pyogenes MMX 6253, S. agalactiae MMX 6189, E. faecalis ATCC 29212, E. faecalis MMX 486, B. subtilis ATCC 6633, C. difficile ATCC 700057, B. fragilis ATCC 25285. Assays with taylorflavin A (7) were carried in-house according to the same protocols.

[6] = test system: B. subtilis ATCC 6633; assay: Minimal inhibitory concentration (CLSI methods); assay type: cell-based
Method: as §4

[7] = test system: S. aureus ATCC 29213; assay: Minimal inhibitory concentration (CLSI methods); assay type: cell-based
Method: as §4

[8] = test system: E. coli ATCC 25922; assay: Minimal inhibitory concentration (CLSI methods); assay type: cell-based
Method: as §4

[9] = test system: S. hiroshimensis; assay: Elicitor screening, supernatants in liquid bioassay against E. coli; assay type: cell-based, Streptomyces hiroshimensis; details: S. hiroshimensis grown with ~33 μM elicitor; supernatant on E. coli, OD600 nm
Method: as §3, with “A volume of 0.5 μL was transferred from the compound library into each well to give a final concentration of ^˜33 μM.” left out
(§5) Assays against E. coli were also carried out. In this case, broader elicitation screens were conducted using a ˜500-member natural product library as the source of potential inducers. To increase the throughput of the assays, liquid bioassays were used. Rather than manually spotting each disc, the supernatants were screened by robotically transferring the supernatant from the elicitor plate to 96-well plates inoculated with the E. coli test strain.
(§6) From the elicitor plates, after culturing for 5 days, the plates were spun down in a 96-well plate centrifuge and the supernatants (10 μL) transferred to fresh 96-well assay plates, each well containing 100 μL LB-E. coli culture, with the E. coli cells inoculated to an initial OD600 nm OD600 nm of 0.002. The assay plates were cultured at 37° C./200 rpm overnight (10-12 h) and OD600 nm was then determined using a plate reader. To generate the plot in FIG. 3, the OD600 nm from each well was divided by the average OD600 nm from the entire plate and multiplied by 100 to give the percent growth. This normalization was carried out to account for plate-to-plate variation in growth rates.

[10] = test system: S. lavendulae; assay: as above; assay type: cell-based, Streptomyces lavendulae; details: S. lavendulae grown with ~33 μM elicitor; supernatant on E. coli, OD600 nm
Method: as §3, §5
as §6, with “rates. The results for the entire library are shown for S. lavendulae in FIG. 3. The two wells with the highest stimulation (301, 302) and highest inhibition (303, 304) are indicated.” for “rates.”

[11] = test system: A. keratiniphila; assay: Elicitor screening, supernatants in disc diffusion assays against B. subtilis; assay type: cell-based, Amycolatopsis kerathiniphila; details: A. keratiniphila grown with ~33 μM elicitor, 5 days; supernatant on B. subtilis disc diffusion
Method: as §1, §2

[12] = test system: S. cebuensis; assay: Validation of elicitors: agar disc diffusion assays; assay type: cell-based, Saccharopolyspora cebuensis; details: supernatants of S. cebuensis grown with elicitor
[13] = test system: S. hiroshimensis; assay: Elicitor screening, supernatants in disc diffusion assays against B. subtilis; assay type: cell-based, Streptomyces hiroshimensis; details: S. hiroshimensis grown with ~33 μM elicitor, 5 days; supernatant on B. subtilis disc diffusion
Method: as §3, with “Candidate elicitors were added from a commercially-available 502-member Natural Products Library (from Enzo Life Sciences, Inc.) using a CYBI-WELL™ automated liquid transfer robot (from CyBio AG). A volume of 0.5 μL was transferred from the compound library into each well to give a final concentration of ^˜33 μM.” left out

Q: With COc1ccc2c(=O)cc(-c3ccccc3OC)oc2c1 [7,2′-dimethoxyflavone] as the compound, how does the “induction of anti-B. subtilis metabolite(s)” value [1] read?
A: appeared to induce synthesis of anti-B. subtilis metabolite(s)

Q: Cc1cn([C@H]2C[C@H](N=[N+]=[N-])[C@@H](CO)O2)c(=O)[nH]c1=O [AZT] was tested. Which “effect of elicitor-induced metabolome on E. coli growth” value (“effect of elicitor-induced metabolome” below) [2] did it give?
A: produce growth-inhibitory compounds

Q: CCCCC(CC)COC(=O)CC(C(=O)OCC(CC)CCCC)S(=O)(=O)[O-].[Na+] (centres unmarked) [Na-docusate] was tested. Which “effect of elicitor-induced metabolome” value [3] did it give?
A: stimulated E. coli growth best

Q: How did the “antibiotic activity / inhibition of E. coli growth” value [4] turn out when Cn1nc2[nH]c(=O)n(C)c(=O)c2nc1=O [Taylorflavin A] was run?
A: antibiotic activity

Q: What about the “minimal inhibitory concentration (MIC)” value [5] of the same compound?
A: 25 µg/mL (≈ 120 µM)

Q: What about the “minimal inhibitory concentration (MIC)” value [6] of the same compound?
A: >64 µg/mL

Q: And the “minimal inhibitory concentration (MIC)” value ([6]; listed as taylorflavin A)?
A: Significantly weaker activity

Q: And the “minimal inhibitory concentration (MIC)” value [7]?
A: >64 µg/mL

Q: What about the “minimal inhibitory concentration (MIC)” value ([7]; listed as taylorflavin A) of the same compound?
A: Significantly weaker activity

Q: What about the “minimal inhibitory concentration (MIC)” value [8] of the same compound?
A: 37.5 µg/mL (≈ 179 µM)

Q: Which “effect of elicitor-induced metabolome” value [9] does the source give for CC(=O)OC1CN2CCC1CC2 (centres unmarked) [aceclidine] here?
A: most enhanced E. coli growth

Q: For NC(=O)NC1NC(=O)NC1=O (centres unmarked) [allantoin], which “effect of elicitor-induced metabolome” value [10] is on record?
A: inhibited it

Q: COC(=O)[C@H](Cc1ccccc1)NC(=O)[C@@H](N)CC(=O)O [aspartame] (H-Asp-Phe-OMe) was tested. Which “effect of elicitor-induced metabolome” value [2] did it give?
A: enhanced E. coli growth

Q: How did the “induction of zones of inhibition against B. subtilis” value [11] turn out when CC(=O)O[C@H]1C(=O)[C@@]2(C)[C@H]([C@H](OC(=O)c3ccccc3)[C@]3(O)C[C@H](O)C(C)=C1C3(C)C)[C@]1(OC(C)=O)CO[C@@H]1C[C@@H]2O [baccatin III] was run?
A: gave rise to zones of inhibition

Q: C[C@H](CCC(=O)O)[C@H]1CC[C@H]2[C@@H]3[C@H](O)C[C@@H]4C[C@H](O)CC[C@]4(C)[C@H]3CC[C@]12C [chenodiol] was tested. Which “effect of elicitor-induced metabolome” value [10] did it give?
A: support E. coli growth best

Q: For CN(C)CC[C@@H](c1ccc(Cl)cc1)c1ccccn1 [dexchlorpheniramine], which “effect of elicitor-induced metabolome” value [9] is on record?
A: most enhanced E. coli growth

Q: NS(=O)(=O)c1cc(C(=O)O)c(NCc2ccco2)cc1Cl [furosemide] was tested. Which “halo of growth-inhibition in agar disc diffusion” value [12] did it give?
A: halo of growth-inhibition

Q: For N[C@H]1C(O)O[C@H](CO)[C@@H](O)[C@@H]1O (some centres unmarked) [glucosamine], which “effect of elicitor-induced metabolome” value [9] is on record?
A: most enhanced E. coli growth

Q: O[C@H]1[C@H](O)[C@@H](O)[C@H](O)[C@@H](O)[C@H]1O [inositol] was tested. Which “effect of elicitor-induced metabolome” value [10] did it give?
A: inhibited it

Q: For CC(C)NCC(O)c1ccc(O)c(O)c1 (centres unmarked) [isoproterenol], which “effect of elicitor-induced metabolome” value [10] is on record?
A: support E. coli growth best

Q: How did the “induction of zones of inhibition against B. subtilis” value [11] turn out when COc1cc2oc(=O)ccc2cc1O [isoscopoletin] was run?
A: gave rise to zones of inhibition

Q: Which “effect of elicitor-induced metabolome” value [9] does the source give for CC12CC3CC(C)(C1)CC(N)(C3)C2 [memantine] here?
A: inhibited E. coli growth best

Q: Which “effect of elicitor-induced metabolome” value [3] does the source give for Cn1cc[nH]c1=S [methimazole] here?
A: stimulated E. coli growth best

Q: With CC[C@@H](CO)NC(=O)[C@@H]1C=C2c3cccc4[nH]cc(c34)C[C@H]2N(C)C1 [methylergonovine] as the compound, how does the “effect of elicitor-induced metabolome” value [9] read?
A: inhibited E. coli growth best

Q: Which “effect of elicitor-induced metabolome” value [3] does the source give for NC(=O)CN1CCCC1=O [piracetam] here?
A: stimulated E. coli growth best

Q: How did the “induction of anti-B. subtilis metabolite(s)” value [13] turn out when COc1cc(NC(C)CCCN)c2ncccc2c1 (centres unmarked) [primaquine] was run?
A: appeared to elicit anti-B. subtilis metabolite(s)

Q: Which results are given for CCN(CC)CCOC(=O)c1ccc(N)cc1 [procaine]?
A: effect of elicitor-induced metabolome on E. coli growth [3]: inhibited it; induction of anti-B. subtilis metabolite(s) [13]: appeared to elicit anti-B. subtilis metabolite(s)

Q: For CCN1CCCC1CNC(=O)c1cc(S(N)(=O)=O)ccc1OC (centres unmarked) [sulpiride], which “effect of elicitor-induced metabolome” value [2] is on record?
A: produce growth-inhibitory compounds
